Patent publication US20170071976A1, “PHARMACEUTICAL SOLUTION HAVING ANTI-TUMOR EFFECT-ENHANCING AND TOXICITY-REDUCING EFFECT, AND PHARMACEUTICAL COMPOSITION COMPRISING SAME” (priority 2014, published 2017)
Read-outs that look alike come from different tables or passages of the source. Marks after values point to notes of the source that are not given here.

Columns and labels:
[1] = tested on: human lung cancer A549 cells; assay: Cell invasion assayed by Transwell; type: cell-based; conditions: invaded A549 cells, control 178.3 ± 13.8
Protocol: Cell lines: human colon cancer HCT-116 cells and human lung cancer A549 cells were provided by NANJING […] BIOTECH. CO., LTD. […] The cell suspension was centrifuged at 800 to 1,000 rpm for 5 min, and the supernatant was discarded; 1.4. A complete culture medium was added to the cell pellet which was well mixed by gentle pipetting, the cell suspension was transferred to a culture flask, and the cells were cultured by supplementing culture medium. 1. […] After incubation of cells with the test drugs for 24 hours, serum was removed, and the cells were incubated under starvation with an incomplete culture medium for 24 hours; 3. Matrigel was placed at 4° C. in advance to thaw overnight; 4. Thawed Matrigel was 1:1 diluted with the incomplete culture medium, 30 μl diluted Matrigel was added to the upper compartment of Transwell and incubated at 37° C. for 120 min to gel the Matrigel; 5. Cells from different groups were digested, counted, and then adjusted to a density of 1×10^5 cells/ml with the incomplete culture medium, 100 μl cell suspension was added to the upper compartment (small compartment) of Transwell, and 500 μl medium containing 20% FBS was added to the lower compartment of Transwell; 6. A 24-well cell culture plate was placed in an incubator at 37° C. and 5% CO2 to culture the cells for 24 hours; 7. […] The assay was repeated one more time.

[2] = tested on: human lung cancer A549 cells; assay: Cell cycle by PI single staining (flow cytometry); type: cell-based; conditions: GM 250 nM in NS, 72 hours
Protocol: Effect of deuterium oxide on the cell cycle of human lung cancer A549 cells and human colon cancer HCT-116 cells Human lung cancer A549 cells and human colon cancer HCT-116 cells were provided by NANJING […] BIOTECH. CO., LTD., and cultured in an incubator at 37° C., 5% CO2 and saturated humidity. A KGA511 Cell cycle assay kit was provided by NANJING […] BIOTECH. CO., LTD. The flow cytometer was FACS Calibur provided by Becton-Dickinson, US. […] The cell suspension was centrifuged at 800 to 1,000 rpm for 5 min, and the supernatant was discarded; 1.4. A complete culture medium was added to the cell pellet which was well mixed by gentle pipetting, the cell suspension was transferred to a culture flask, and the cells were cultured by supplementing culture medium. […] When all the cells became round, an equal volume of culture medium containing serum was added to cease the digestion; 2.4. The cells were blown by pipetting to suspend, then drawn into a 15 ml centrifugal tube, and centrifuged at 1000 rpm for 5 min; 2.5. […] 1. Cells growing in the exponential phase were digested and inoculated to a 6-well plate; on the next day, after the cells attached to the wall, cell culture media containing corresponding test drugs were added according to different groups, and a negative control group was also set; 2. […] The cells were washed with PBS once (centrifuged at 2,000 rpm for 5 min), and 5×10^5 cells were collected; 4. […] In a detection apparatus, red fluorescence with an excitation wavelength of 488 nm was recorded.

[3] = tested on: xenograft tumors from human breast cancer MCF-7 cells; assay: MCF-7 xenograft in nude mice, intravenous deuterium oxide in combination with gemcitabine; type: in vivo, BALB/c nude mice; conditions: for Body weight (g) End, given as change / Body weight (g) Initial / Bone marrow DNA content (OD): mouse, in vivo; for Inhibition (%): tumor weight
Protocol: Ltd. Cell lines: human breast cancer MCF-7 cells were provided by NANJING […] BIOTECH. CO., LTD. […] Bone marrow nucleated cells were isolated by a routine method, DNA was extracted from the cells, the OD value was measured in a UV-260 spectrometer as a representative of the DNA content, and inhibition of DNA synthesis by the test samples was observed. The test used 7 groups in total, with 8 animals per group. […] Statistics: the same as Example 21.

[4] = tested on: human pancreatic cancer PANC-1 cells inoculated into the peritoneal cavity; assay: Survival of nude mice bearing PANC-1 cells, 42° C. intraperitoneal retention lavage with HP-β-CD or sodium chloride deuterium oxide solution and gemcitabine; type: in vivo; conditions: 42° C. NS 10 ml/kg + gemcitabine 20 mg/kg, i.p. lavage x 5
Protocol: Effect of 42° C. hyperthermicintraperitoneal retention lavage with hydroxypropyl-β-cyclodextrin (HP-β-CD) deuterium oxide solution in combination with gemcitabine (GEM) on the survival of nude mice bearing human pancreatic cancer PANC-1 cell.
Animal: 4 to 5 week-aged male nude mice, provided by Shanghai SIPPR-BK Laboratory Animal Co. Ltd.
Cell lines: human pancreatic cancer PANC-1 cell line was provided by NANJING KEYGEN BIOTECH.
Modeling: 0.2 ml suspension of pancreatic cancer PANC-1 cells containing 1×10^7 cells/ml (2×10^6 cells in total) was inoculated into the peritoneal cavity of the nude mice.
Grouping and dosing: the mouse model was established 7 to 8 days after inoculation into the nude mice, and the mice were randomized with 18 animals/group.
Gemcitabine was separately dissolved in the HP-β-CD deuterium oxide solution at 42° C., and in the sodium chloride deuterium oxide solution at 42° C., for intraperitoneal lavage of tumor-bearing mice.
Blank control group (42° C. sodium chloride physiological solution, 10 ml/kg); 2). Normal chemo group (42° C. sodium chloride physiological solution, 10 ml/kg+gemcitabine 20 mg/kg); 3). Low-dose sodium chloride deuterium oxide solution+gemcitabine group (42° C. sodium chloride deuterium oxide solution, 5 ml/kg+gemcitabine 20 mg/kg); 4). […]

[5] = tested on: xenograft tumors from human lung cancer A549 cells; conditions: mouse, in vivo
Protocol: (§1) Animal: 6 to 7 week-aged female BALB/c nude mice, each weighing 18 to 20 g, provided by Shanghai SLAC Laboratory Animal Co. Ltd.
(§2) Test drugs: gemcitabine (GEM) and the sodium chloride deuterium oxide solution prepared in Example 1.
(§3) Tumor cells were resuscitated and inoculated, and sterile sodium chloride physiological solution was added thereto to make a cell suspension which was subcutaneously inoculated into the upper right axillary fossa of animals. 5×10^6 tumor cells were inoculated into each animal.
(§4) The diameter of xenograft tumors in the nude mice was measured with a vernier caliper, and 10 days after inoculation, when tumors grew to 100 to 110 cm^3, the animals were randomized with 8 mice per group. Meanwhile drugs were administered by injection into tail vein, once every three days, for 21 successive days. By measuring the tumor diameter, the anti-tumor efficacy of test samples was dynamically observed. Meanwhile the body weight of animals was also recorded to observe the toxicity of the test samples. 21 days after administration, the nude mice were sacrificed, and tumors were harvested by surgery, weighed and photographed.
(§5) 6) Test group 2: gemcitabine (10 mg/kg) diluted in the sodium chloride deuterium oxide solution (10 ml/kg). 7) Test group 3: gemcitabine (10 ml/kg) diluted in the sodium chloride deuterium oxide solution (20 ml/kg).

[6] = tested on: xenograft tumors from human lung cancer A549 cells; assay: A549 xenograft in nude mice, intravenous deuterium oxide in combination with gemcitabine; conditions: for Inhibition (%): tumor weight
Protocol: as §1, §2, §3, §4, §5

[7] = tested on: superficial bladder cancer (SBC); conditions: mitomycin dissolved in only a sodium chloride solution, intrabladder perfusion and lavage; cited from earlier work
[8] = GEM(H) 20 mg/kg × 11, tail vein
[9] = GEM(L) 10 mg/kg × 11, tail vein, 10 mg/kg
[10] = GEM(L) 10 mg/kg × 11, tail vein, listed as gemcitabine, 10 mg/kg
[11] = GEM(H) 20 mg/kg × 11, tail vein, 20 mg/kg
[12] = GEM(H) 20 mg/kg × 11, tail vein, listed as gemcitabine, 20 mg/kg

Nc1ccn([C@@H]2O[C@H](CO)[C@@H](O)C2(F)F)c(=O)n1 [Gemcitabine, gemcitabine]
Number of cells ([1]; GEM 1.95 nM): 160.0 ± 6.6
Number of cells ([1]; GEM 3.9 nM): 112.7 ± 3.5
Number of cells ([1]; GEM 7.8 nM): 59.0 ± 2.0
Number of cells ([1]; GEM 15.6 nM): 51.7 ± 3.1
Number of cells ([1]; GEM 31.2 nM): 37.3 ± 2.3
Number of cells ([1]; GEM 62.5 nM): 22.3 ± 0.6
Number of cells ([1]; GEM 125 nM): 16.0 ± 1.0
Number of cells ([1]; GEM 250 nM): 9.7 ± 2.1
G1 Phase [2]: 73.73 ± 3.73%
G2 Phase [2]: 10.71 ± 2.39%
S Phase [2]: 15.55 ± 5.51%
tumor volume ([3]; 21 days after administration, gemcitabine 10 mg/kg alone): 2.757±0.342 cm^3
Tumor weight [3, 8]: 1.57 ± 0.21 g
Tumor weight ([3]; GEM(L) 10 mg/kg × 11, tail vein): 2.48 ± 0.41 g
T/C (relative tumor growth ratio) ([3]; gemcitabine 10 mg/kg alone, vs negative control): 60.39%
Body weight (g) End, given as change ([3]; 10 mg/kg): +2.9 g
Body weight (g) Initial ([3]; 10 mg/kg): 18.0 g
Bone marrow DNA content (OD) ([3]; 10 mg/kg): 0.908 ± 0.2543 OD
Body weight (g) End, given as change ([3]; 20 mg/kg): +0.9 g
Body weight (g) Initial ([3]; 20 mg/kg): 18.1 g
Bone marrow DNA content (OD) ([3]; 20 mg/kg): 0.823 ± 0.1416 OD
Inhibition (%) [3, 8]: 61.42%*
Inhibition (%) [3, 9]: 39.06%
Inhibition (%) [3, 10]: 39.18%
T/C(%) [4]: 150.8%
MST ([4]; control 11.8 ± 2.2): 17.8 ± 1.8 days
Body weight (g) End, given as change ([5]; 10 mg/kg): +0.4 g
Body weight (g) Initial ([5]; 10 mg/kg): 18.0 g
Body weight (g) End, given as change ([5]; 20 mg/kg): +0.5 g
Body weight (g) Initial ([5]; 20 mg/kg): 18.4 g
Tumor weight [6, 11]: 1.04 ± 0.13 g
Tumor weight [6, 12]: 1.04 ± 0.13 g
Tumor weight [6, 9]: 2.23 ± 0.2 g
Tumor weight [6, 10]: 2.23 ± 0.2 g
Inhibition (%) [6, 11]: 64.54* %
Inhibition (%) [6, 12]: 64.54%
Inhibition (%) [6, 9]: 23.64%
Inhibition (%) [6, 10]: 23.6%

CO[C@@]12[C@H](COC(N)=O)C3=C(C(=O)C(C)=C(N)C3=O)N1C[C@@H]1N[C@@H]12 [mitomycin]
tumor recurrence rate [7]: 78%
